Laboratory results taken from patent US10596115B2, “Pharmaceutical composition for the treatment of diminution of bone tissue” (Council of Scientific & Industrial Research, priority 2013, dated 2020).
Where a SMILES comes first, the peptide text is derived from it. The star is where a group is joined. Cbz = O=C(OCc1ccccc1)*; OtBu = CC(C)(C)O*

Legend:
[1] = system: Mice Calvarial osteoblasts (MCOs); test: Quantitative real time PCR of osteogenic genes in MCOs; type: cell-based; details: 10 nM
Procedure: Cells were homogenized using 1 ml of TRIzol reagent (Invitrogen, Carlsbad, Calif., USA), and total RNA was extracted according to the manufacturer's protocol. cDNA was synthesized using RevertAid™ First Strand cDNA synthesis kit (#K1621 Fermentas, Canada) from 1 μg of total RNA. Quantitative real time PCR amplifications were performed in The LightCycler® 480 Real-Time PCR System (Roche Diagnostics, USA) using LightCycler SYBR Green (Roche Diagnostics, USA) according to the manufacturer's instruction. The sequences of primer sets for Smurf1, Smurf2, RunX2, BMP-2, alkaline phosphatase (ALP), osteocalcin (OCN), Collagen I (Coll) and GAPDH mRNAs, target sites on mRNAs and product sizes by PCR are shown in FIG. 6. The quantity of each sample was normalized using the CT (threshold cycle) value obtained for the GAPDH mRNA amplifications.

[2] = system: Mice Calvarial osteoblasts (MCOs); test: Alkaline phosphatase (ALP) assay in mice calvarial osteoblasts; type: cell-based; details: for ALP production / ALP activity compared with control: osteoblast differentiation medium, 1 pM to 1 μM; for dose most effective in stimulating ALP activity: dose range 1 pM to 1 μM
Procedure: For each experiment, 1 to 2 day old […] were used to harvest 20 to 35 calvaria at room temperature (25° C.). Briefly, individual calvaria were surgically isolated from the skull, the sutures were segregated, and the adherent tissue material was cleaned by gentle scrapping. As described previously, the pooled calvarias were kept for repeated digestion (15 minutes/digestion) with 0.05% trypsin and 0.1% collagenase P to release the cells. First digestion was discarded and cells were collected from the next four digestions. These cells were cultured in a modified essential medium (a-MEM) containing 10% fetal calf serum (FCS) and 1% penicillin/streptomycin (complete growth medium). Cultures of MCOs were allowed to reach 80% confluence for the experiments.
For the measurement of ALP activity, MCOs at approximately 80% confluence were trypsinized, and 2×10^3 cells/well were seeded onto 96-well plates. […] At the end of incubation period, total ALP activity was measured using p-nitrophenylphosphate (PNPP) as substrate, and absorbance was read at 405 nm.

[3] = system: Smads; details: Ito y et al, 2011; cited from earlier work
[4] = target: 20 S proteasome (Rattus norvegicus, UniProt P28075); test: 20 S proteasome activity assay in calvarial osteoblast cells; details: for inhibition of 20 S proteasomal activity: calvarial osteoblast cells
[5] = Mundy GR et al, 2005; cited from earlier work
[6] = system: Mice Calvarial osteoblasts (MCOs); test: Mineralization assay (Alizarin red-S); type: cell-based; details: 10 nM, 21 days, vs control group
Procedure: Mineralization assay was carried out to assess the mineralizing ability and thus bone formation of osteoblasts cells. […] At the end of the experiment, the cells were washed with PBS and fixed with paraformaldehyde (4%) in PBS for 15 minutes. Alizarin red-S stain was used for staining mineralized nodules, followed by extraction of the stain using 10% acetic acid and 10% ammonium hydroxide for colorimetric quantification at 405 nm.

[7] = system: Mice calverial osteoblast; test: Apoptosis assay (Annexin V/PI, FACS) in serum deprived MCOs; type: cell-based; details: 10 nM, 24 h
Procedure: Annexin V/PI staining for fluorescence-activated cell sorting (FACS) analysis was carried out using Calbiochem Annexin V-FITC Apoptosis Detection Kit (Calbiochem, USA) according to manufacturer's instructions.

[8] = system: Ovariectomized (OVx) Mice; test: In vivo efficacy of WFA on ovariectomized (OVx) mice, μCT; parameters: species or system Balb/c mice; details: doses 1, 5 and 10
Procedure: The intraperitoneal dose for iPTH (40 μg·kg^-1 for 3 days/week) used in this study as known anabolic agent. […] For dynamic histomorphometry measurements each animal was administered intraperitoneally with fluorochromes tetracycline (20 mg·kg^-1) on day 30 […] and calcein (20 mg·kg^-1) on day 60 (8 weeks) after the commencement of various treatments. After 8 weeks of treatment, all mice were euthanized and autopsied to collect bones (i.e., tibias and femurs) for measurement of bone parameter. […] BMCs were cultured in bone marrow differentiation medium to induce mineralization for 18 days. Mineralization was quantified as described. Alizarin red S stain was used for staining mineralized nodules, followed by extraction of the stain for quantification. […] The plasma samples were analyzed by HPLC according to reported method with slight modification. Sky Scan 1076 μCT scanner (Aartselaar, Belgium) was used to carryout μCT scanning of excised bones as described before. The bone samples were scanned at a resolution of 9 μm and reconstruction was done using the Sky Scan Nrecon software. The X-ray source was set at 50 kV and […], with a pixel size of 9 μm. A hundred projections were acquired over an angul arrange of 180°. […] Trabecular thickness (Tb.Th) and structure mode index (SMI) was calculated according to the method of Hildebrand and Ruegsegger. […]

[9] = system: Mice primary osteoblast cells; test: Cell proliferation assay (direct cell count and BrdU); type: cell-based; details: 24 h
Procedure: Mice primary osteoblast cells were plated at a density of 2.5×10^5 cells/ml/well in 12 well plates at 37° C. […] The cells were trypsinized and viable cells were counted with a hemocytometer using trypan blue dye exclusion. Cell counts were performed in duplicate and repeated in three cultures. […] Cell proliferation was determined using BrdU ELISA (from Calbiochem, Darmstadt, Germany) using manufacturer's instructions. For the last 3h of the 24 h stimulation, the, cells were trypsinized and 2000 cells/well were seeded in a-MEM supplemented with 10% fetal bovine serum, and the cells were pulsed with BrdU. Absorbance at dual wavelength of 450-540 nm was measured with a microplate reader.

[10] = system: serum osteocalcin in OVx mice; test: Bone turnover marker, serum osteocalcin EIA; type: in vivo; details: 60 days, vs OVx+vehicle
From the text: Rat-MID™ Osteocalcin EIA (Immunodiagnostic, UK) performed using serum from treated and vehicle groups using manufacturer's protocol as provided in the kit.

[11] = system: Mouse bone marrow cells; test: Osteoclast culture, real-time expression of TRAP and RANK; type: cell-based; details: bone marrow cultures with MCSF and RANKL, 6 days, vs control vehicle
Procedure: In vitro osteoclastogenesis was performed using standard protocol. Mouse bone marrow cells were flushed from femur using alpha-MEM. Cells were seeded in flask overnight in Osteoclast medium (alpha MEM, 10% FCS, antibiotic, EBSS, 10 ng/ml MCSF). […] The medium was replaced after every 48 hours. After 6 days of culture, the cells were washed with PBS and then fixed in 4% paraformaldehyde or used for RNA extraction using TRIZOL for analysis of TRAP, RANK mRNA levels by real-time PCR. Fixed cells were followed by TRAP staining using the standardized protocol.

[12] = system: drill-hole injury in femur of Sham and OVx Balb/c mice; test: Fracture healing drill-hole study; type: in vivo
From the text: Sixty adult Balb/c mice (18-20 g each) were taken and divided into six groups of […] for the study. Each group included 12 animals per group. […] Mice were left for 8 weeks for the OVx mice to develop osteopenia. After 8 weeks, drill-hole injury was created in both sham and OVx groups. In mid femur region the front skin was incised straight and longitudinally 1 cm in length under anesthetic condition. After splitting the muscle, periosteum was stripped to expose the femoral bone surface. A drill-hole injury was made, 1 cm above the knee joint by inserting a drill bit with a diameter of 0.1 mm in the anterior portion of the diaphysis of the bilateral femurs. […] Each animal received intraperitoneal administration of fluorochrome calcein (20 mg·kg^−1) 24 h before autopsy. After 21 days of treatment as described above, all mice were euthanized and autopsied to collect their femurs for the measurement of bone micro architectural parameters at the drill hole site. Bones were embedded in acrylic material and 50 μm sections were made using an Isomet BoneCutter (Buehler, Lake Bluff, Ill. USA) and photographs were taken under confocal microscope LSM 510 Meta, Carl Zeiss, USA) aided with appropriate filters. The intensity of calcein binding, which is an indicator of the amount of new mineral deposition, was calculated using Carl Zeiss A M 4.2 image-analysis software.

[13] = system: uterus of OVx mice; test: Estrogenicity studies (uterine weight); type: in vivo; details: all doses
Procedure: The uterus of each mouse was weighed and then fixed in 4% paraformaldehyde. A middle segment of each uterus was dehydrated in ascending grades of isopropanol, cleared in xylene and sections of about 5 μm thickness was prepared. Haematoxylin and eosin staining was done of 5 μm transverse sections and representative images were captured. Leica Qwin-Semiautomatic Image Analysis software (Leica Microsystems GmbH) was used to measure total uterine area, luminal area and luminal epithelial height.

Q: Which results are given for `CC1=C(C)C(=O)O[C@@H]([C@](C)(O)[C@H]2CC[C@H]3[C@@H]4[C@@H]5O[C@@H]5[C@@]5(O)CC=CC(=O)[C@]5(C)[C@H]4CC[C@]23C)C1` [WNA, Withanolide A]?
A: mRNA expression of collagen I [1]: stimulated mRNA expression of collagen I; ALP production / ALP activity compared with control ([2]; 48 h): significantly increased ALP production; dose most effective in stimulating ALP activity [2]: 10 nM

Q: For `CC(=O)N[C@@H](CSC(=O)[C@]1([C@@H](O)C(C)C)NC(=O)[C@H](C)[C@@H]1O)C(=O)O` [Lactacystin, reference compound], which “Activity: activity of Smads (in vitro)” value [3] is on record?
A: The value was “Increases”.

Q: What about the “inhibition of 20 S proteasomal activity” value [4] of the same molecule?
A: The value was “significantly inhibits the 20 S proteasomal activity”.

Q: For `CC[C@H](C)[C@H](NC(=O)[C@H]([C@@H](C)CC)N(C)C(C)=O)C(=O)N[C@H](C(=O)N[C@@H](CC(C)C)C(=O)[C@@]1(C)CO1)[C@@H](C)O` [Epoxomicin], which “Activity: bone volume and bone formation rate” value [5] is on record?
A: The value was “Increases bone”.

Q: What does the source list for `CC(C)C[C@H](NC(=O)[C@H](Cc1ccccc1)NC(=O)c1cnccn1)B(O)O` [Bzb, Bortezomib, reference compound]?
A: mineralization (Alizarin-S dye extraction) [6]: comparable to Bzb treatment; apoptosis of serum deprived MCOs ([7]; 0.5% FBS): comparable to standard control Bortizomib (Bzb); inhibition of 20 S proteasomal activity [4]: comparable to Bzb

Q: With `CC1=C(CO)C(=O)O[C@@H]([C@@H](C)[C@H]2CC[C@H]3[C@@H]4C[C@H]5O[C@]56[C@@H](O)C=CC(=O)[C@]6(C)[C@H]4CC[C@]23C)C1` [WFA, Withaferin A] as the molecule, how does the “mRNA expression of collagen I” value [1] read?
A: Its value is “stimulated mRNA expression of collagen I”.

Q: What about the “expression of osteogenic genes RunX2, OCN and Col I” value ([1]; normalized to GAPDH) of the same molecule?
A: The value was “increased expression of RunX2, OCN and Col I”.

Q: And the “mineralization (Alizarin-S dye extraction)” value [6]?
A: Its value is “significant increase in mineralization”.

Q: What about the “most effective dose (BV/TV, inter-dose comparison)” value [8] of the same molecule?
A: Its value is 10 mg/kg/day.

Q: And the “concentration that maximally stimulated MCO proliferation” value [9]?
A: Its value is 10 nM.

Q: What about the “osteoblast proliferation (direct cell count and BrdU incorporation)” value ([9]; vs control vehicle set as 100) of the same molecule?
A: The value was “concentration dependently stimulated osteoblast proliferation”.

Q: And the “serum osteocalcin (OCN) levels” value [10]?
A: The value was “significant reduction in the levels of OCN”.

Q: And the “mRNA levels of TRAP and RANK” value [11]?
A: Its value is “significantly reduced mRNA levels of TRAP and RANK”.

Q: What about the “ALP activity compared to Bortizomib” value ([2]; 10 nM, 48 h) of the same molecule?
A: The value was about 3 fold.

Q: What about the “ALP production / ALP activity compared with control” value ([2]; 48 h) of the same molecule?
A: Its value is “significantly increased ALP production”.

Q: What about the “dose most effective in stimulating ALP activity” value [2] of the same molecule?
A: Its value is 10 nM.

Q: And the “callus mineralization / bridging of defect” value ([12]; 5 mg kg-1 d-1, after day 11 post drilling)?
A: The value was “predominantly occupied mineralized callus, and the defect region was partially bridged”.

Q: And the “callus mineralization / bridging of defect” value ([12]; 10 mg kg-1 d-1, compared with 5 mg kg-1 d-1)?
A: Its value is “more increased mineralized callus within the intra medulla region to be remodeled to completely bridge the defect”.

Q: What about the “mineral deposition (intensity of calcein labeling in the drill hole)” value ([12]; 5 and 10 mg kg-1 d-1, 21 days, vs vehicle) of the same molecule?
A: Its value is “increased mineral deposition”.

Q: And the “mineral deposition in OVx mice” value ([12]; OVx mice, 5 and 10 mg kg-1 d-1, vs OVx vehicle)?
A: Its value is “increased mineral deposition in OVx mice”.

Q: And the “apoptotic cells (early and late)” value ([7]; serum deprived (0.5% FBS) MCOs)?
A: The value was 3%.

Q: What about the uterine weight [13] of the same molecule?
A: The uterine weight was “uterine weight comparable to OVx group”.

Q: What about the “earliest time of inhibition of proteasomal 20 S subunit activity” value ([4]; 10 nM) of the same molecule?
A: Its value is 3 h.

Q: What about the “maximum inhibition of proteasomal 20 S subunit activity” value ([4]; 10 nM, at 6 h, compared with positive control) of the same molecule?
A: Its value is 40-50%.

Q: Which “mRNA expression of collagen I” value [1] does the source give for `CC1=C(C)C(=O)O[C@@H]([C@@H](C)[C@@]2(O)CC[C@H]3[C@@H]4[C@@H]5O[C@@H]5[C@@]5(O)CC=CC(=O)[C@]5(C)[C@H]4CC[C@@]32C)C1` [WN, Withanone] here?
A: The value was “stimulated mRNA expression of collagen I”.

Q: What about the “ALP production / ALP activity compared with control” value ([2]; 48 h) of the same molecule?
A: Its value is “did not stimulate ALP activity significantly”.

Q: And the “dose most effective in stimulating ALP activity” value [2]?
A: Its value is 10 nM.

Q: With `CC[C@H](C)[C@H](NC(=O)OCc1ccccc1)C(=O)N[C@@H](CCC(=O)OC(C)(C)C)C(=O)N[C@@H](C)C(=O)N[C@H](C=O)CC(C)C` [PSI] (Cbz-IE(OtBu)AL-aldehyde) as the molecule, how does the “Activity: bone volume and bone formation rate” value [5] read?
A: The value was “Increases bone”.
